Assay results as given in patent US4665085A, “Amidines, preparation process and therapeutical application thereof” (Laboratoires Chauvin-Blache, priority 1983, dated 1987).
pIC50: −log10 of the molar value.

Columns and labels:
male New-Zealand rabbits = experiment: Hypotensive activity in rabbits after topical administration (intraocular pressure); assay type: in vivo; settings: rabbit; for effect on pressure in the contralateral eye (evidence of an action at the level of the central nervous system): same experimental conditions (topical instillation); for Duration of the effect / t (time corresponding to the maximum effect) / Δmax (maximum decrease of the intraocular pressure with respect to the basic value at time zero): 0.5% isotonic aqueous solution instilled in an eye
Procedure: 2. Hypotensive activity in rabbits, after topical administration
The experiments were conducted using male New-Zealand rabbits (2 kg body weight) given "ad libitum" food and drink.
The animals are given a few days to get accustomed to the animal house, are conditioned to stabling in restraining boxes, and to the ocular pressure determinations, in order to prevent pressure deviations induced by stress and handling.
The intraocular pressure is determined with an ALCON aplanation pneumatonograph, standardized by means of an isolated cornea of rabbit, under water pressure.
The compounds are tested in isotonic aqueous solution, at pH 7.25 μl of an 0.5% solution are instilled in an eye, and the intraocular pressure is determined as a function of time.
Table below gives the maximum decrease of the intraocular pressure (Δ max) with respect to the basic value at time zero (time of instillation), the time corresponding to this maximum effect (t), and the total duration of the effect.

[1] = system: male Swiss mice (NMRI-Han); experiment: Acute toxicity by the intraperitoneal route; assay type: in vivo; settings: observation time 48 hours
Procedure: The mice used are male Swiss mice (NMRI-Han) with an average body weight of 25 g.
The acute toxicity investigation was effected by the intraperitoneal route.
The compounds were injected in aqueous solution, at three dosage levels: 50, 100 and 200 mg/kg.
Table below gives the results obtained with compounds of the formula (I), after an observation time of 48 hours.
The results are expressed as number of dead animals vs. the total number of animals treated.

[2] = molecular target: T1, platelet α2 adrenergic receptors (Oryctolagus cuniculus, UniProt Q5ZQK3); experiment: Affinity for platelet α2 adrenergic receptors (inhibition of specific linking of tritiated dihydroergocryptine); assay type: binding; settings: rabbit platelet membranes, tritiated DHE 7 nM, 30 minutes at 25° C.; read-out: CE50 (dosage required to inhibit 50 percent of the linking of tritiated DHE)
T1 construct: from tissue; host or cells: platelet membranes from blood of male New Zealand albino rabbits
T1 sequence (Q5ZQK3 1-451): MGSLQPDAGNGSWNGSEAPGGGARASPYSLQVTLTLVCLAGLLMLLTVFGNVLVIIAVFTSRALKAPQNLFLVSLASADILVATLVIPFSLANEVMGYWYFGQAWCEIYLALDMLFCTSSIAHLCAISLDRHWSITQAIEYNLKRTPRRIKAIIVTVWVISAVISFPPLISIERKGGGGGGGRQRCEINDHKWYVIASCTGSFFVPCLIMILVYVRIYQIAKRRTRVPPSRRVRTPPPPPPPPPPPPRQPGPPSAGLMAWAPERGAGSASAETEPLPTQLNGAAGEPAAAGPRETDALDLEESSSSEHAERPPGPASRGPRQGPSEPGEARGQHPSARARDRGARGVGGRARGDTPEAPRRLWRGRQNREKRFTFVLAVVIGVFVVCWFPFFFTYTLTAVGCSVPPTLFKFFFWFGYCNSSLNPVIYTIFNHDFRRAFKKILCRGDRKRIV
Procedure: 1. Affinity for platelet α2 adrenergic receptors
The compounds of the formula (I) were tested on the platelet adrenergic receptor of rabbit which is exclusively of α2 type (MICHEL T., Nature, 288, (5792) 709, 1980).
The affinity of said compounds for the α2 receptors is determined by measuring the inhibition of the specific linking of tritiated dihydroergocryptine (DHE) by the test compounds.
The rabbits used are male New-Zealand albino rabbits
Blood is taken by the intracardiac route, over ACD (an anticoagulant consisting of an aqueous solution containing 0.27 g citric acid, 0.5 g trisodium citrate and 0.02 g glucose per 20 ml water) at a rate of 1 volume ACD per 6 volumes blood.
The blood is centrifuged 10 minutes at 280 g and the supernatant (PRP) is collected. The PRP is centrifuged 15 minutes at 2000 g.
The platelet sediment is washed twice with buffer I (Tris 50 mM, NaCl 150 mM, EDTA 20 mM, pH 7.5) and is then re-suspended in buffer II (Tris 50 mM, EDTA 5 mM, pH 7.5).
This suspension is frozen at -40° C., and is then defrosted; the procedure is repeated twice. The suspension is then homogenized, after which it is centrifuged 10 minutes at 40,000 g, at 4° C.
The centrifugation sediment is washed with buffer II and is then re-suspended in this same buffer so that the final protein concentration is of the order of 1.5 mg/ml.
The inhibition tests are effected in a final volume of 0.2 ml of buffer II containing the tritiated DHE (7 nM) and varying concentrations of test compound.
The reaction is initiated by adding 0.2 mg proteins and is continued for 30 minutes at 25° C.
The incubation is terminated by adding 2 ml buffer II and by rapidly filtering this mixture in vacuo, through Whatman GF/C filters. The filters are rapidly washed with buffer II and the radioactivity bound to the filter is determined by liquid scintillation.
The dosage required to inhibit 50 percent of the linking of the […] DHE (CE50) is calculated for each of the test compounds.

SMILES	effect on pressure in the contralateral eye (evidence of an action at the level of the central nervous system) (male New-Zealand rabbits)	number of dead animals vs. total number of animals treated ([1]; 100 mg/kg)	number of dead animals vs. total number of animals treated ([1]; 200 mg/kg)	pIC50 [2]	Duration of the effect (male New-Zealand rabbits) [mn]	t (time corresponding to the maximum effect) (male New-Zealand rabbits) [mn]	Δmax (maximum decrease of the intraocular pressure with respect to the basic value at time zero) (male New-Zealand rabbits) [mm Hg]	number of dead animals vs. total number of animals treated ([1]; 50 mg/kg)
Clc1cccc(Cl)c1C=NNC1=NCCN1 [(2,6-dichlorobenzylidene-hydrazino)-2-imidazoline, reference compound]	concomitant decrease of the pressure in the contralateral eye							
Cc1cc(O)ccc1C=NNC1=NCCN1 [Compound 1]		0/3	0/3	5.52	360	60	-3.12 ± 2.21	
Cc1cc(N)ccc1C=NNC1=NCCN1 [Compound 2]		0/3	3/3	5.00	300	60	-4.12 ± 0.95	
CC(=NNC1=NCCN1)c1ccc(O)cc1C [Compound 3]		0/3	3/3	5.25	300	30	-1.83 ± 1	
COc1cc(O)ccc1C=NNC1=NCCN1 [Compound 4]		0/3	0/3	5.52	400	60	-2.5 ± 0.57	
COc1cc(N)ccc1C=NNC1=NCCN1 [Compound 5]		0/3		4.85	360	120	-3.9 ± 0.5	
COc1cc(O)ccc1C(C)=NNC1=NCCN1 [Compound 6]				5.60				
Cc1cc(O)ccc1C=NNC(=N)N [Compound 7]		0/3	3/3	5.20		60	-0.25 ± 1.7	
Cc1cc(N)ccc1C=NNC(=N)N [Compound 8]		0/3	3/3	4.49				
COc1cc(O)ccc1C=NNC(=N)N [Compound 9]		3/3	3/3	5.10				0/3
CC(=NNC(=N)N)c1ccc(O)cc1C [Compound 10]		0/3	2/3	4.96				
COc1cc(O)ccc1C(C)=NNC(=N)N [Compound 11]				5.89				
Clc1cccc(Cl)c1N=C1NCCN1 [clonidine, 2,6-dichloro-anilino-2-imidazoline, reference compound]	concomitant decrease of the pressure in the contralateral eye							
